Measurements from US20040185073A1, “Cosmetic compositions containing salts of malonic acid” (Unilever Home & Personal Care USA, Division of Conopco, Inc., priority 2003, published 2004).

Test system: Porcine Skin
Test: Porcine Skin Test (thermo-mechanical analyzer deflection, 20 gram load)
Description: A feature of the present invention is that malonate salts are those which impart to the composition a positive Flexibility Value of at least 1, preferably at least 1.1 relative to water in the Porcine Skin Test. This test utilizes a thermo-mechanical analyzer with a 20 gram load to a one-cm diameter disc of Porcine Skin from which the immediate deflection is recorded in mm. Water serves as a control. Skin samples are measured before and 24 hours after one, two and three treatments. These treatments consist of 150 μl of each composition being applied to the skin for five minutes, then removed without rinsing. Thereafter, drying is performed at 21° C. and less than 100% relative humidity. Data transformation consists of determining the ratio of the deflection value after three applications of the test composition to the deflection value of the water standard. The ratio is defined as the Flexibility Value.
A variety of carboxylic acid salts were evaluated to determine their response in a Porcine Skin Test. A Perkin-Elmer Thermo-Mechanical Analyzer, Model TMS-1, was operated with a 20 gram load placed to a center of a one-cm diameter disc of Porcine Skin. Deflection of the skin in mm was immediately recorded. The sample size was six pieces of skin per treatment. Water was used as a control. […] Each was measured dry before and 24 hours after one, two and three treatments. […]

Dimethylethanolammonium Malonate [Malonate Salt]
Flexibility Value (test material solution, 150 μl applied 5 minutes, ratio of deflection after three applications to deflection of water standard (water = 1.00)): 1.36 | effect on skin flexibility (in words) (test material solutions, versus water): significantly more flexible
